Test results published in ChEMBL document CHEMBL1201862, “PubChem BioAssay data set” (2004).
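Compound exposure: 48 hours, 5 concentrations, 96-well plates. Abbreviation: GI50, concentration required for 50% inhibition of growth.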 Active and inactive are the calls of the source. Cut-off read from the data, not from the text of the source: active = GI50 up to about 1.1 µM and inactive = higher.

Legend:
Assay in all cases: inhibition of tumour cell growth, NCI panel, 48 h
[1] = test system: A549
[2] = test system: KM12
[3] = test system: COLO 205
[4] = test system: NCI/ADR-RES
[5] = test system: K562
[6] = test system: CCRF-CEM
[7] = test system: SK-MEL-5
[8] = test system: SW-620
[9] = test system: SK-OV-3
[10] = test system: SK-MEL-2
[11] = test system: MOLT-4
[12] = test system: EKVX
[13] = test system: MDA-N
[14] = test system: Malme-3M
[15] = test system: UO-31
[16] = test system: DU-145
[17] = test system: OVCAR-5
[18] = test system: SR
[19] = test system: HL-60

Measured: GI50

Cc1nc(O)nc2nc3cc(Cl)cc(Cl)c3c(NC(C)(CO)CO)c12
inactive: [1] > 100 µM | [2] > 100 µM | [3] > 100 µM | [4] > 100 µM | [5] > 100 µM | [6] > 100 µM | [7] > 100 µM | [8] > 100 µM | [9] 26.8 µM | [10] 29.1 µM | [11] > 100 µM | [12] > 100 µM | [13] > 100 µM | [14] > 100 µM | [15] 91 µM | [16] 29.2 µM

OC1[C@@H]2[C@@H](O)[C@H](O)[C@@H](O)N2C[C@@H]1O (stereo partly specified)
inactive: [1] > 100 µM | [2] > 100 µM | [3] > 100 µM | [4] > 100 µM | [5] > 100 µM | [6] > 100 µM | [7] > 100 µM | [17] > 100 µM | [8] > 100 µM | [9] > 100 µM | [10] > 100 µM | [11] > 100 µM | [12] > 100 µM | [13] > 100 µM | [14] > 100 µM | [15] > 100 µM | [16] > 100 µM

Cc1n[nH]c(=O)n1/N=C/c1ccc(F)cc1
inactive: [1] > 100 µM | [2] > 100 µM | [3] > 100 µM | [4] > 100 µM | [5] > 100 µM | [6] > 100 µM | [17] > 100 µM | [8] > 100 µM | [9] > 100 µM | [11] > 100 µM | [12] 92.9 µM | [18] > 100 µM | [13] > 100 µM | [15] > 100 µM | [16] > 100 µM

CCOC1=NC(O)c2cccn2-c2sccc21 (stereo unspecified)
inactive: [1] 43.2 µM | [2] > 100 µM | [3] 7.73 µM | [4] > 100 µM | [5] 57.8 µM | [7] 96.4 µM | [17] > 100 µM | [8] > 100 µM | [9] 93.3 µM | [10] > 100 µM | [11] 51.6 µM | [18] 34.2 µM | [13] > 100 µM | [14] > 100 µM | [15] > 100 µM | [16] > 100 µM

CC1CC[C@@H](C(C)C)[C@H](Oc2nnc(C3OC(CO)C(O)C3O)o2)C1 (stereo partly specified)
inactive: [1] > 100 µM | [2] > 100 µM | [3] > 100 µM | [4] > 100 µM | [5] > 100 µM | [6] > 100 µM | [7] > 100 µM | [17] > 100 µM | [8] > 100 µM | [9] > 100 µM | [10] > 100 µM | [11] > 100 µM | [12] > 100 µM | [19] > 100 µM | [13] > 100 µM | [14] > 100 µM | [15] > 100 µM | [16] > 100 µM

COC(=O)c1sc2ncc3c(c2c1N)CCCCCC3
inactive: [1] > 100 µM | [2] > 100 µM | [3] > 100 µM | [4] > 100 µM | [5] > 100 µM | [6] > 100 µM | [7] > 100 µM | [17] > 100 µM | [8] > 100 µM | [9] > 100 µM | [10] > 100 µM | [11] > 100 µM | [12] > 100 µM | [18] > 100 µM | [13] > 100 µM | [14] > 100 µM | [15] > 100 µM | [16] > 100 µM

COc1ccc(C(=O)C(c2ccc(OC)cc2)C2(O)C(=O)Nc3c(Cl)cc(Cl)cc32)cc1 (stereo unspecified)
inactive: [1] 24.2 µM | [2] 17.8 µM | [3] 29.4 µM | [5] 16.6 µM | [6] 15.6 µM | [7] 18.5 µM | [17] 20.1 µM | [8] 17.6 µM | [9] 50.7 µM | [10] 14.1 µM | [11] 9.35 µM | [12] 18.7 µM | [19] 4.68 µM | [14] 15.5 µM | [15] 27.7 µM

O=C(/C=C1\Nc2ccccc2N\C1=C\C(=O)c1ccc(Cl)cc1)c1ccccc1
inactive: [1] 53 µM | [2] 64.4 µM | [3] > 100 µM | [4] > 100 µM | [5] 37.5 µM | [6] 10.4 µM | [7] > 100 µM | [17] 64 µM | [8] > 100 µM | [9] 70 µM | [10] > 100 µM | [11] 7.87 µM | [12] > 100 µM | [18] 20.6 µM | [14] > 100 µM | [15] 21.4 µM | [16] > 100 µM

COc1ccc(Oc2nc3ccc(C(F)(F)F)cc3nc2-c2ccccc2)cc1
inactive: [2] > 100 µM | [3] > 100 µM | [5] 87.9 µM | [6] 98.9 µM | [7] > 100 µM | [17] > 100 µM | [8] > 100 µM | [9] > 100 µM | [10] > 100 µM | [11] 62.4 µM | [12] > 100 µM | [19] 42 µM | [18] 13.1 µM | [14] > 100 µM | [15] 1.57 µM | [16] > 100 µM

Cc1nc2c(=O)n3c4c(cccc4c2o1)CCC3
inactive: [1] > 100 µM | [2] > 100 µM | [3] > 100 µM | [4] > 100 µM | [5] 72.8 µM | [6] > 100 µM | [7] > 100 µM | [17] > 100 µM | [8] > 100 µM | [9] > 100 µM | [10] > 100 µM | [11] 37.9 µM | [12] 76.6 µM | [19] > 100 µM | [13] > 100 µM | [14] > 100 µM | [15] > 100 µM | [16] > 100 µM

CCN(CC)CCNC(=O)c1cc2cc(NC(=O)c3cc4cc([N+](=O)[O-])ccc4[nH]3)ccc2[nH]1
inactive: [1] 19.3 µM | [2] 1.71 µM | [3] 5.68 µM | [4] > 100 µM | [5] 1.61 µM | [7] 3.85 µM | [17] 69.7 µM | [8] 6.11 µM | [9] 25.9 µM | [10] > 52.6 µM | [11] 13 µM | [12] 4.98 µM | [18] 7.29 µM | [13] 52.8 µM | [15] > 40.5 µM | [16] 14.2 µM

Nc1ccc(-c2nc3ccc(Cc4ccc5nc(-c6ccc(N)cc6)oc5c4)cc3o2)cc1
inactive: [1] > 100 µM | [2] > 100 µM | [3] > 100 µM | [4] > 100 µM | [5] 44.5 µM | [6] > 100 µM | [17] > 100 µM | [8] > 100 µM | [9] > 100 µM | [10] > 100 µM | [11] 67 µM | [18] 12.7 µM | [13] > 100 µM | [14] 40 µM | [15] > 100 µM | [16] > 100 µM

O=P(c1ccccc1)(c1ccccc1)c1ccc2c(c1)OCCOCCOCCOCCO2
inactive: [1] > 100 µM | [2] > 100 µM | [3] > 100 µM | [5] > 100 µM | [6] > 100 µM | [7] > 100 µM | [8] > 100 µM | [9] > 100 µM | [11] > 100 µM | [12] > 100 µM | [19] > 100 µM | [18] > 100 µM | [13] > 100 µM | [14] > 100 µM | [15] > 100 µM | [16] > 100 µM

C#CC(C)(C)OC(=O)C(=[N+]=[N-])C(C)=O
inactive: [1] > 10 µM | [2] > 10 µM | [5] > 10 µM | [6] > 10 µM | [7] > 10 µM | [17] > 10 µM | [8] > 10 µM | [9] > 10 µM | [10] > 10 µM | [11] > 10 µM | [12] > 10 µM | [19] > 10 µM | [18] > 10 µM | [13] > 10 µM | [14] > 10 µM | [15] > 10 µM | [16] > 10 µM

Cc1occc1/C(S)=N\c1ccc(Cl)c(C(=O)OCC2CC2)c1
inactive: [1] > 100 µM | [2] 32.3 µM | [3] 26.7 µM | [4] 33.3 µM | [5] 18.8 µM | [6] 20.7 µM | [7] 41.2 µM | [17] > 100 µM | [8] 54.7 µM | [9] 35.6 µM | [10] 47.4 µM | [11] 14.9 µM | [12] 35 µM | [19] 28.4 µM | [13] 41.6 µM | [14] 88.5 µM | [15] 58.5 µM | [16] 73.3 µM

CC(C)(C)c1ccc(OC(=O)Nc2ccc(O)c(C(=O)O)c2)cc1
inactive: [1] > 100 µM | [2] > 100 µM | [3] > 100 µM | [4] > 100 µM | [5] > 100 µM | [6] > 100 µM | [7] > 100 µM | [17] > 100 µM | [8] > 100 µM | [9] > 100 µM | [10] > 100 µM | [11] > 100 µM | [12] > 100 µM | [19] 30.7 µM | [18] > 100 µM | [14] > 100 µM | [16] > 100 µM
